Experimental data reported in US8115005B2, “Pyrazolylphenyl and pyrrolylphenyl inhibitors of LTA4H for treating inflammation” (Decode Genetics EHF., priority 2006, dated 2012).
Structures can show the parent of a compound that is named as a salt.

How the values were obtained:
[1] = target: T1, LTA4H (Mus musculus, UniProt P24527); conditions: oral administration, mouse blood ex vivo; cited from earlier work
T1 construct: host or cells: mouse blood (ex vivo, after oral dosing)
T1 sequence (P24527 1-611): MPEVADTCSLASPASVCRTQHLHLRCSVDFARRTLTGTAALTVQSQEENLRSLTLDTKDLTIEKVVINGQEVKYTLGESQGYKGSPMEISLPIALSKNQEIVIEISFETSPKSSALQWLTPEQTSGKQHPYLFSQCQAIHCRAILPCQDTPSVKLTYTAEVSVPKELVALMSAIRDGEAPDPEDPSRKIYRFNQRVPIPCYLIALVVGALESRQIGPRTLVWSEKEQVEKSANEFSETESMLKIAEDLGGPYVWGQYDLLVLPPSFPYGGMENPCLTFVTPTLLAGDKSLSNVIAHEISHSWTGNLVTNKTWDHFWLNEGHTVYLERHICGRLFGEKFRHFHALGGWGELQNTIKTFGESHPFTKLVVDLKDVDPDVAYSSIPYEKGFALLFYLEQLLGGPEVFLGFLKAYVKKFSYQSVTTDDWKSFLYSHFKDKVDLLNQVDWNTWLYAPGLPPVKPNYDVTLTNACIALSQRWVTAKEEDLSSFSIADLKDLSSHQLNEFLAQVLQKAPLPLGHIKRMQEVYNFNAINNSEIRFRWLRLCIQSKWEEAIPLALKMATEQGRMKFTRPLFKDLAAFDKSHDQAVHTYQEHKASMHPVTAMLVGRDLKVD

[2] = target: T2, LTA4H (Rattus norvegicus, UniProt P30349); conditions: oral administration, rat peritoneum in vivo; cited from earlier work
T2 construct: and in rat peritoneum in vivo; host or cells: rat peritoneum (in vivo, after oral dosing)
T2 sequence (P30349 1-611): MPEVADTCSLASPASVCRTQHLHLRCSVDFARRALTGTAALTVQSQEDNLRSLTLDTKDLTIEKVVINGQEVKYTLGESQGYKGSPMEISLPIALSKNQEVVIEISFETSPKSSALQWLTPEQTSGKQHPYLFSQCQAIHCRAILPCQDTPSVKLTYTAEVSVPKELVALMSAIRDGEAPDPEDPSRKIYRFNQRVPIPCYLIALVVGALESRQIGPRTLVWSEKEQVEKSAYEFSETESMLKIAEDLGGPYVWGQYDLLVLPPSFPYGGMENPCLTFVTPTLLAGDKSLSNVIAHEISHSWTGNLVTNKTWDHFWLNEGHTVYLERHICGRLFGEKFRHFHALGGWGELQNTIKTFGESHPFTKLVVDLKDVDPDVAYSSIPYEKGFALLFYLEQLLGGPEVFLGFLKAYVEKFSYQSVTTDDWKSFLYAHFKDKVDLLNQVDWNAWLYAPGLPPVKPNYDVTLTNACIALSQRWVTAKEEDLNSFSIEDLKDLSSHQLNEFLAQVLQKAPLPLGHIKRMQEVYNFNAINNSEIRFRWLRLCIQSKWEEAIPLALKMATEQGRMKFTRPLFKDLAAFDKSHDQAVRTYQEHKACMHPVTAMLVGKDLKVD

[3] = tested on: colitis symptoms; conditions: eight weeks of treatment, primate model of spontaneous colitis; cited from earlier work
[4] = target: T3, recombinant human LTA4 hydrolase (Homo sapiens, UniProt P09960); test: In vitro assay testing inhibitory activity against purified recombinant human LTA4 hydrolase; format: biochemical; conditions: LTB4 formation; table does not say which of the two described assays (enzyme or human whole blood)
T3 construct: A human LTA4 hydrolase full-length cDNA clone (NM_000895) was purchased from OriGene Technologies; own knowledge that pDEST17 adds an N-terminal 6xHis, consistent with the Ni-NTA purification) (N); made in house; host or cells: Escherichia coli BL21-AI
T3 sequence (P09960 1-611): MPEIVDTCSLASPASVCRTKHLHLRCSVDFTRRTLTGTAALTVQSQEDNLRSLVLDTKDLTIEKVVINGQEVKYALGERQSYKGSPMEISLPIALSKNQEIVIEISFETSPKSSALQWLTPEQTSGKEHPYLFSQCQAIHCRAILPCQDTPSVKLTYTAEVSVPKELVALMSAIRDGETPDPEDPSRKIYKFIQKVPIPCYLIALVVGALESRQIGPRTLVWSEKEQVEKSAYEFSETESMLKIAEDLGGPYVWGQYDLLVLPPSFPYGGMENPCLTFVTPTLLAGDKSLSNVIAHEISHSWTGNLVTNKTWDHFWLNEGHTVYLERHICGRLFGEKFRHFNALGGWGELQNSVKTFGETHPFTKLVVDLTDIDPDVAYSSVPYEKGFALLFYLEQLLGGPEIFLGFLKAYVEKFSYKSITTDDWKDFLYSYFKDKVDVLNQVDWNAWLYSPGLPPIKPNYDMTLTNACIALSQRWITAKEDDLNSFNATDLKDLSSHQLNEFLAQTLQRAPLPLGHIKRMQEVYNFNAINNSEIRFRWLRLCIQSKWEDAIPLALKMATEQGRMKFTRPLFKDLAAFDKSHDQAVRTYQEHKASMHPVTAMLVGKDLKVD
From the text: (1) In vitro assay testing inhibitory activity against purified recombinant human LTA4 hydroase. A human LTA4 hydrolase full-length cDNA clone (NM_000895) was purchased from OriGene Technologies (Rockville, Md.). The gene was amplified by polmerase chain reaction and transferred via pDONR201 into the bacterial expression vector pDEST17 by recombination (both plasmids from Invitrogen, Carlsbad, Calif.). The resulting construct was transformed into Escherichia coli BL21-AI (Invitrogen), and expression was induced by chemical induction with arabinose. The recombinant enzyme was purified by chromatography on an FPLC system (Amersham Biosciences, Uppsala, Sweden) using immobilized metal affinity chromatography (Ni-NTA Superflow, Qiagen, Hilden, Germany) and anion exchange chromatography (MonoQ HR 10/10, Amersham Biosciences).
The compounds of the invention were incubated in a series of dilutions with 200 nM of recombinant enzyme in assay buffer (100 mM Tris-HCl, 100 mM NaCl, 5 mg/ml fatty-acid free BSA, 10% DMSO, pH 8.0) for 10 min at room temperature to allow binding between LTA4 hydrolase and the inhibitors. LTA4 was prepared by alkaline hydrolysis of LTA4 methyl ester (Biomol, Plymouth Meeting, Pa., or Cayman Chemicals, Ann Arbor, Mich.). A solution of 10 μg of the ester was dried under a nitrogen stream and redissolved in 60 μl of a solution of 80% acetone and 20% 0.25 M NaOH. After incubation for 40 min at room temperature the resulting approximately 500 μM tock of LTA4 was kept at −80° C. for no more than a few days prior to use.
Immediately before the assay, LTA4 was diluted to a concentration of 10 μM in assay buffer (without DMSO) and added to the reaction mixture to a final concentration of 2 μM to initiate the enzyme reaction. After incubation for 120 sec at room temperature, the reaction was stopped by adding 2 volumes of chilled quenching buffer, containing acetonitril with 1% acetic acid and 225 nM LTB4-d4 (Biomol). The samples were then kept at 4° C. overnight to complete protein precipitation and centrifuged for 15 min at 1800 g. LTB4 formed was measured by LC-MS/MS using LTB4-d4 as an internal standard and an external LTB4 standard (Biomol) as reference. Based on the amounts of LTB4 found at each inhibitor concentration, a dose-response curve was fitted to the data and an IC50 value was calculated.

| SMILES | IC50 [4] | also measured |
| --- | --- | --- |
| CN(CCCOc1ccc(Cc2ccccc2)cc1)CCC(=O)O.Cl [SC57461] |  | inhibition of ionophore-induced LTB4 production [1]: inhibition of ionophore-induced LTB4 production; inhibition of ionophore-induced LTB4 production [2]: inhibition of ionophore-induced LTB4 production; colitis symptoms [3]: significantly improved colitis symptoms |
| Cc1cc(C(F)(F)F)n(-c2ccc(OCCN3CCCCC3)cc2)n1 [Example 5, 1-{2-[4-(3-Methyl-5-trifluoromethyl-pyrazol-1-yl)-phenoxy]-ethyl}-piperidine] | < 5 µM |  |
| FC(F)(F)c1ccnn1-c1ccc(OCCN2CCCCC2)cc1 [Example 4, 1-{2-[4-(5-Trifluoromethyl-pyrazol-1-yl)-phenoxy]-ethyl}-piperidine] | 5 to 20 µM |  |
| Cc1c(C(F)F)cnn1-c1ccc(OCCN2CCCCC2)cc1 [Example 6, 1-{2-[4-(4-Difluoromethyl-5-methyl-pyrazol-1-yl)-phenoxy]-ethyl}-piperidine] | 5 to 20 µM |  |
| c1cnn(-c2ccc(OCCN3CCCCC3)cc2)c1 [Example 1, 1-[2-(4-Pyrazol-1-yl-phenoxy)-ethyl]-piperidine] | 5 to 20 µM |  |
| Cc1cc(C)n(-c2ccc(OCCN3CCCCC3)cc2)n1 [Example 3, 1-{2-[4-(3,5-Dimethyl-pyrazol-1-yl)-phenoxy]-ethyl}-piperidine] | < 5 µM |  |
| c1ccn(-c2ccc(OCCN3CCCCC3)cc2)c1 [Example 8, 1-[2-(4-Pyrrol-1-yl-phenoxy)-ethyl]-piperidine] | < 5 µM |  |
| c1ccn(-c2ccc(OC[C@H]3CCCN3)cc2)c1 [Example 7, 1-[4-((R)-1-Pyrrolidin-2-ylmethoxy)-phenyl]-1H-pyrrole hydrochloride] | < 5 µM |  |
| O=Cc1cccn1-c1ccc(OCCN2CCCCC2)cc1 [Example 10, 1-[4-(2-Piperidin-1-yl-ethoxy)-phenyl]-1H-pyrrole-2-carbaldehyde] | < 5 µM |  |
| Cc1ccn(-c2ccc(OCCN3CCCCC3)cc2)n1 [Example 2, 1-{2-[4-(3-Methyl-pyrazol-1-yl)-phenoxy]-ethyl}-piperidine] | 5 to 20 µM |  |
| Brc1cccn1-c1ccc(OCCN2CCCCC2)cc1 [Example 9, 1-{2-[4-(2-Bromo-pyrrol-1-yl)-phenoxy]-ethyl}-piperidine] | < 5 µM |  |
